Laboratory results: patent US12581252B2, “Substituted pyrrolo[3,4-b]pyridines as PI3K-α inhibitors” (Relay Therapeutics, Inc., priority 2020, dated 2026)

Target: H1047R PIK3CA enzyme (Homo sapiens, UniProt P42336, H1047R)
Experiment: ADP-Glo Biochemical PIK3CA Kinase Assay

Chain of H1047R PIK3CA enzyme (P42336 whole entry H1047R): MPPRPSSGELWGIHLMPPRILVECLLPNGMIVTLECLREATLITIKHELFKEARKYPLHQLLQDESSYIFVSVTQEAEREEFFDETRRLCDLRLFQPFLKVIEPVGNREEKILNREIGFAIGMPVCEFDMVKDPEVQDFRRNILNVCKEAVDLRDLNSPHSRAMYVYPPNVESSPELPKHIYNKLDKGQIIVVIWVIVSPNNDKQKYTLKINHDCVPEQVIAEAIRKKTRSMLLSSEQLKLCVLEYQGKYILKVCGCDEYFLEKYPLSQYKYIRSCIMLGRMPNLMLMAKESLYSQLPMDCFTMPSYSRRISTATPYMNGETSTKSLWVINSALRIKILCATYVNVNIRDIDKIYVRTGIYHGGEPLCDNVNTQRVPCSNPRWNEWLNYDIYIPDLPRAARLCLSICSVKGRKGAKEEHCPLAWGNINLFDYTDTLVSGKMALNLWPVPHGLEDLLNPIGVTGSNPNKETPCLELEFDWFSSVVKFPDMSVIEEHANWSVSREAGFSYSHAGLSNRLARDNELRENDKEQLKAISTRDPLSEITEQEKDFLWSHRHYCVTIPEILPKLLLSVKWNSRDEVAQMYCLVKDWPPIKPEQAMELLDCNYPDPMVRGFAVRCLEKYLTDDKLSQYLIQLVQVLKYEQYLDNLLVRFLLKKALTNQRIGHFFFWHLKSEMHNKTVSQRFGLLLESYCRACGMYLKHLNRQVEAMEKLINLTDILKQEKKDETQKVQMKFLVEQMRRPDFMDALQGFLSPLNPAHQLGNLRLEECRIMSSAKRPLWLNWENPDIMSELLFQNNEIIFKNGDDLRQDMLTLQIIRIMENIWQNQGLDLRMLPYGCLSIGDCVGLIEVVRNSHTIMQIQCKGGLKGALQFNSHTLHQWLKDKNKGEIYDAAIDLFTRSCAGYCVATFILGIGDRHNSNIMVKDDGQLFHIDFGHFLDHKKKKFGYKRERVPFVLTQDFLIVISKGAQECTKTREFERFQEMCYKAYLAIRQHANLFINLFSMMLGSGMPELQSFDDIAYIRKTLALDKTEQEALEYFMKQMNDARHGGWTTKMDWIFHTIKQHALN
Chain of H1047R PIK3CA enzyme (P27986 whole entry partner): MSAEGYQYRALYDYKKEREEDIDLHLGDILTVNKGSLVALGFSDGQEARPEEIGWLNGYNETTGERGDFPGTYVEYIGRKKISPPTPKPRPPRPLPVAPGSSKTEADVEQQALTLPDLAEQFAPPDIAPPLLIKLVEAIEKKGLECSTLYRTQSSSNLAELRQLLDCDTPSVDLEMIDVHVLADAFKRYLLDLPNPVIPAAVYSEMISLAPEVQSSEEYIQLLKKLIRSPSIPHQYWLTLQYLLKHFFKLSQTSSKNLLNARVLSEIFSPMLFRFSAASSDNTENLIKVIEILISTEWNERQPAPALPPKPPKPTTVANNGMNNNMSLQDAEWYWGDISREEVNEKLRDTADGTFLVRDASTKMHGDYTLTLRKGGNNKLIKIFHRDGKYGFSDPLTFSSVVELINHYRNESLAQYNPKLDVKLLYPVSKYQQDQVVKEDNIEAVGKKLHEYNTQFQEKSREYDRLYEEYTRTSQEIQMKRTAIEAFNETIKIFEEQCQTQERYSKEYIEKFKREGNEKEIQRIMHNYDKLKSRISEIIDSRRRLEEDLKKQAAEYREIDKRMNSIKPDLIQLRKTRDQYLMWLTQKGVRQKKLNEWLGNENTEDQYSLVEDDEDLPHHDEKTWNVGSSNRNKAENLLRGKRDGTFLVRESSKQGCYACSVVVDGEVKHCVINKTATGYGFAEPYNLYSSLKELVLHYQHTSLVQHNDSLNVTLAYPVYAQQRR

SMILES | IC50
N#Cc1cccc(S(=O)(=O)Cc2cc(NC(=O)c3cc(F)cc(C(F)(F)F)c3)c3c(c2)C(=O)NC3c2cc(F)ccc2Cl)c1 (stereo not drawn) [Compound I-1491] | ≤ 100 nM
O=C(Nc1cc(-c2cnc(OC3CC3)nc2)cc2c1C(c1cc(F)ccc1Cl)NC2=O)c1cc(F)cc(C(F)(F)F)c1 (stereo not drawn) [Compound I-1492] | ≤ 100 nM
O=C(NCCC(O)CO)c1cc(NC(=O)c2cc(F)cc(C(F)(F)F)c2)c2c(c1)C(=O)NC2c1cc(F)ccc1Cl (stereo not drawn) [Compound I-1493] | ≤ 100 nM
C/S(Cc1cc(NC(=O)c2cc(F)cc(C(F)(F)F)c2)c2c(c1)C(=O)NC2c1cc(F)ccc1Cl)=N\C#N (stereo not drawn) [Compound I-1494] | ≤ 100 nM
O=C(Nc1cc(CS(=O)(=O)c2ccncc2)cc2c1C(c1cc(F)ccc1Cl)NC2=O)c1cc(F)cc(C(F)(F)F)c1 (stereo not drawn) [Compound I-1495] | ≤ 100 nM
O=C(Nc1cc(Cc2ccc3c(c2)CNC3=O)cc2c1C(c1cc(F)ccc1Cl)NC2=O)c1cc(F)cc(C(F)(F)F)c1 (stereo not drawn) [Compound I-1496] | ≤ 100 nM
O=C(Nc1cc(Cn2cccn2)cc2c1C(c1cc(F)ccc1Cl)NC2=O)c1cc(F)cc(C(F)(F)F)c1 (stereo not drawn) [Compound I-1497] | ≤ 100 nM
CS(=O)(=O)n1cc(-c2cc(NC(=O)c3cc(F)cc(C(F)(F)F)c3)c3c(c2)C(=O)NC3c2cc(F)ccc2Cl)cn1 (stereo not drawn) [Compound I-1498] | ≤ 100 nM
O=C(Nc1cc(-c2ccc3ccnn3c2)cc2c1C(c1cc(F)ccc1Cl)NC2=O)c1cc(F)cc(C(F)(F)F)c1 (stereo not drawn) [Compound I-1499] | ≤ 100 nM
O=C(Nc1cc(-c2ccc3cncn3c2)cc2c1C(c1cc(F)ccc1Cl)NC2=O)c1cc(F)cc(C(F)(F)F)c1 (stereo not drawn) [Compound I-1500] | ≤ 100 nM
O=C(Nc1cc(-c2ccn3cnnc3c2)cc2c1C(c1cc(F)ccc1Cl)NC2=O)c1cc(F)cc(C(F)(F)F)c1 (stereo not drawn) [Compound I-1501] | ≤ 100 nM
N#C/N=C(\Nc1ccc(F)cc1C(F)(F)F)Nc1cc(Br)cc2c1C(c1cc(F)ccc1Cl)NC2=O (stereo not drawn) [Compound I-1502] | 1000 to 10000 nM
O=C(Nc1cc(-c2ccn3cncc3c2)cc2c1C(c1cc(F)ccc1Cl)NC2=O)c1cc(F)cc(C(F)(F)F)c1 (stereo not drawn) [Compound I-1503] | ≤ 100 nM
O=C(Nc1cc(-c2cnn3ccnc3c2)cc2c1C(c1cc(F)ccc1Cl)NC2=O)c1cc(F)cc(C(F)(F)F)c1 (stereo not drawn) [Compound I-1504] | ≤ 100 nM
CNC(=O)n1cc(-c2cc(NC(=O)c3cc(F)cc(C(F)(F)F)c3)c3c(c2)C(=O)NC3c2cc(F)ccc2Cl)cn1 (stereo not drawn) [Compound I-1505] | ≤ 100 nM
CNC(=O)c1ncc(-c2cc(NC(=O)c3cc(F)cc(C(F)(F)F)c3)c3c(c2)C(=O)NC3c2cc(F)ccc2Cl)cn1 (stereo not drawn) [Compound I-1506] | 100 to 500 nM
CC(C)(CNC(=O)Nc1cc(Br)cc2c1C(c1cc(F)ccc1Cl)NC2=O)C1(O)CCC1 (stereo not drawn) [Compound I-1507] | 10000 to 100000 nM
O=C1NC(c2cc(F)ccc2Cl)c2c(NC(=O)N3CC4(CC4)c4cc(F)ccc43)cc(Br)cc21 (stereo not drawn) [Compound I-1512] | 100 to 500 nM
O=C1NC(c2cc(F)ccc2Cl)c2c1cccc2-n1cnc2ccccc2c1=O (stereo not drawn) [Compound I-1516] | 10000 to 100000 nM
O=C(Nc1cc(Cc2ccc3nncn3c2)cc2c1C(c1cc(F)ccc1Cl)NC2=O)c1cc(F)cc(C(F)(F)F)c1 (stereo not drawn) [Compound I-1528] | ≤ 100 nM
CC(C)(O)COc1ncc(-c2cc(NC(=O)c3cc(F)cc(C(F)(F)F)c3)c3c(c2)C(=O)NC3c2cc(F)ccc2Cl)cn1 (stereo not drawn) [Compound I-1529] | ≤ 100 nM

SMILES | IC50
N#CCOc1ncc(-c2cc(NC(=O)c3cc(F)cc(C(F)(F)F)c3)c3c(c2)C(=O)NC3c2cc(F)ccc2Cl)cn1 (stereo not drawn) [Compound I-1530] | ≤ 100 nM
Nc1nc2cc(-c3cc(NC(=O)c4cc(F)cc(C(F)(F)F)c4)c4c(c3)C(=O)NC4c3cc(F)ccc3Cl)ccc2o1 (stereo not drawn) [Compound I-1531] | ≤ 100 nM
CN(C)C(=O)OCc1cc(NC(=O)c2cc(F)cc(C(F)(F)F)c2)c2c(c1)C(=O)NC2c1cc(F)ccc1Cl (stereo not drawn) [Compound I-1532] | ≤ 100 nM
CNS(=O)(=O)Cc1cc(NC(=O)c2cc(F)cc(C(F)(F)F)c2)c2c(c1)C(=O)N[C@@H]2c1cc(F)ccc1Cl [Compound I-1533] | 100 to 500 nM
CNS(=O)(=O)Cc1cc(NC(=O)c2cc(F)cc(C(F)(F)F)c2)c2c(c1)C(=O)N[C@H]2c1cc(F)ccc1Cl [Compound I-1534] | ≤ 100 nM
Cn1cc(NS(=O)(=O)Cc2cc(NC(=O)c3cc(F)cc(C(F)(F)F)c3)c3c(c2)C(=O)NC3c2cc(F)ccc2Cl)cn1 (stereo not drawn) [Compound I-1535] | ≤ 100 nM
O=C(Nc1cc(CS(=O)(=O)c2cccnc2)cc2c1C(c1cc(F)ccc1Cl)NC2=O)c1cc(F)cc(C(F)(F)F)c1 (stereo not drawn) [Compound I-1536] | ≤ 100 nM
N#Cc1ccncc1-c1cc(NC(=O)c2cc(F)cc(C(F)(F)F)c2)c2c(c1)C(=O)NC2c1cc(F)ccc1Cl (stereo not drawn) [Compound I-1537] | ≤ 100 nM
N#Cc1cc2ncnn2cc1-c1cc(NC(=O)c2cc(F)cc(C(F)(F)F)c2)c2c(c1)C(=O)NC2c1cc(F)ccc1Cl (stereo not drawn) [Compound I-1539] | ≤ 100 nM
CC(C)(O)c1cnc2ccc(-c3cc(NC(=O)c4cc(F)cc(C(F)(F)F)c4)c4c(c3)C(=O)NC4c3cc(F)ccc3Cl)cc2c1 (stereo not drawn) [Compound I-1540] | ≤ 100 nM
O=C(Nc1cc(-c2cnc(C(O)CO)nc2)cc2c1C(c1cc(F)ccc1Cl)NC2=O)c1cc(F)cc(C(F)(F)F)c1 (stereo not drawn) [Compound I-1542] | ≤ 100 nM
CS(=O)(=O)Oc1cc(NC(=O)c2cc(F)cc(C(F)(F)F)c2)c2c(c1)C(=O)NC2c1cc(F)ccc1Cl (stereo not drawn) [Compound I-1543] | ≤ 100 nM
O=C(Nc1cc(-c2cnc3ocnc3c2)cc2c1C(c1cc(F)ccc1Cl)NC2=O)c1cc(F)cc(C(F)(F)F)c1 (stereo not drawn) [Compound I-1544] | ≤ 100 nM
O=C1CCc2cc(F)cc(C(=O)Nc3cccc4c3C(c3cc(F)ccc3Cl)NC4=O)c2N1 (stereo not drawn) [Compound I-1545] | 10000 to 100000 nM
O=C1CCc2cc(F)cc(C(=O)Nc3cc(Br)cc4c3C(c3cc(F)ccc3Cl)NC4=O)c2N1 (stereo not drawn) [Compound I-1546] | 10000 to 100000 nM
O=C(Nc1cc(-c2ccc3ncnn3c2)cc2c1C(c1cc(F)ccc1Cl)NC2=O)c1cc(F)cc2c1NC(=O)C2(F)F (stereo not drawn) [Compound I-1547] | ≤ 100 nM
CNC(=O)c1cc(NC(=O)c2ccccc2)c2c(c1)C(=O)NC2c1cc(F)ccc1Cl (stereo not drawn) [Compound I-1548] | 10000 to 100000 nM
O=C1NC(c2cc(F)ccc2Cl)c2c(NC(=O)C3CCCCC3)cc(-c3ccc4ncnn4c3)cc21 (stereo not drawn) [Compound I-1549] | 1000 to 10000 nM
O=C(Nc1cc(-c2ccc3ncnn3c2)cc2c1C(c1cc(F)ccc1Cl)NC2=O)c1ccccc1 (stereo not drawn) [Compound I-1550] | 1000 to 10000 nM
[2H]C([2H])(c1cc(NC(=O)c2cc(F)cc(C(F)(F)F)c2)c2c(c1)C(=O)NC2c1cc(F)ccc1Cl)S(C)(=O)=O (stereo not drawn) [Compound I-1551] | ≤ 100 nM
O=CNc1nc(-c2cc(NC(=O)c3cc(F)cc(C(F)(F)F)c3)c3c(c2)C(=O)NC3c2cc(F)ccc2Cl)ccc1O (stereo not drawn) [Compound I-1552] | ≤ 100 nM

SMILES | IC50
O=C(Nc1cc(-c2ccc3ocnc3n2)cc2c1C(c1cc(F)ccc1Cl)NC2=O)c1cc(F)cc(C(F)(F)F)c1 (stereo not drawn) [Compound I-1553] | ≤ 100 nM
N#CC1CN(S(=O)(=O)Cc2cc(NC(=O)c3cc(F)cc(C(F)(F)F)c3)c3c(c2)C(=O)NC3c2cc(F)ccc2Cl)C1 (stereo not drawn) [Compound I-1556] | ≤ 100 nM
N#Cc1nccn1Cc1cc(NC(=O)c2cc(F)cc(C(F)(F)F)c2)c2c(c1)C(=O)NC2c1cc(F)ccc1Cl (stereo not drawn) [Compound I-1557] | ≤ 100 nM
O=C(Nc1cc(CS(=O)(=O)c2ncccn2)cc2c1C(c1cc(F)ccc1Cl)NC2=O)c1cc(F)cc(C(F)(F)F)c1 (stereo not drawn) [Compound I-1570] | ≤ 100 nM
O=C(Nc1cc(-c2cnn(-c3cscn3)c2)cc2c1C(c1cc(F)ccc1Cl)NC2=O)c1cc(F)cc(C(F)(F)F)c1 (stereo not drawn) [Compound I-1571] | ≤ 100 nM
O=C(Nc1cc(-c2cnn(-c3nccs3)c2)cc2c1C(c1cc(F)ccc1Cl)NC2=O)c1cc(F)cc(C(F)(F)F)c1 (stereo not drawn) [Compound I-1572] | ≤ 100 nM
O=C(Nc1cc(-c2ccc3nc(Cl)nn3c2)cc2c1C(c1cc(F)ccc1Cl)NC2=O)c1cc(F)cc(C(F)(F)F)c1 (stereo not drawn) [Compound I-1573] | ≤ 100 nM
O=C(Nc1cc(-c2ccc3nnc(Cl)n3c2)cc2c1C(c1cc(F)ccc1Cl)NC2=O)c1cc(F)cc(C(F)(F)F)c1 (stereo not drawn) [Compound I-1574] | ≤ 100 nM
O=C(Nc1cc(-c2ccc3nc(Cl)nn3c2)cc2c1C(c1cc(F)ccc1Cl)NC2=O)c1cc(F)cc(C(F)(F)F)c1 (stereo not drawn) [Compound I-1575] | ≤ 100 nM
O=C1NC(c2cc(F)ccc2Cl)c2c1cccc2-n1cc2ccccc2cc1=O (stereo not drawn) [Compound I-1580] | 10000 to 100000 nM
CC(=O)Nc1cccc2c1C(c1cc(F)ccc1Cl)NC2=O (stereo not drawn) [Compound I-1581] | 10000 to 100000 nM
O=C(Nc1cc(Br)cc2c1C(c1cc(F)ccc1Cl)NC2=O)c1cc(F)cc(CC(F)(F)F)c1 (stereo not drawn) [Compound I-1582] | 500 to 1000 nM
O=C(Nc1cc(-c2ccc3ncnn3c2)cc2c1[C@@H](c1cc(F)ccc1Cl)NC2=O)c1cc(F)cc2c1NC(=O)C2(F)F [Compound I-1583] | 1000 to 10000 nM
O=C(Nc1cc(-c2ccc3ncnn3c2)cc2c1[C@H](c1cc(F)ccc1Cl)NC2=O)c1cc(F)cc2c1NC(=O)C2(F)F [Compound I-1584] | 100 to 500 nM
N#Cc1cc2nccn2cc1-c1cc(NC(=O)c2cc(F)cc(C(F)(F)F)c2)c2c(c1)C(=O)N[C@@H]2c1cc(F)ccc1Cl [Compound I-1585] | 500 to 1000 nM
N#Cc1cc2nccn2cc1-c1cc(NC(=O)c2cc(F)cc(C(F)(F)F)c2)c2c(c1)C(=O)N[C@H]2c1cc(F)ccc1Cl [Compound I-1586] | ≤ 100 nM
O=C1C=C(c2cc(NC(=O)c3cc(F)cc(C(F)(F)F)c3)c3c(c2)C(=O)NC3c2cc(F)ccc2Cl)CO1 (stereo not drawn) [Compound I-1587] | ≤ 100 nM
N#Cc1cnn(Cc2cc(NC(=O)c3cc(F)cc(C(F)(F)F)c3)c3c(c2)C(=O)NC3c2cc(F)ccc2Cl)c1 (stereo not drawn) [Compound I-1588] | ≤ 100 nM
[2H]c1nc2ccc(-c3cc(NC(=O)c4cc(F)cc(C(F)(F)F)c4)c4c(c3)C(=O)NC4c3cc(F)ccc3Cl)cn2n1 (stereo not drawn) [Compound I-1589] | ≤ 100 nM
O=C1NC(c2cc(F)ccc2Cl)c2c1cccc2-n1ccc2ccccc2c1=O (stereo not drawn) [Compound I-1590] | 10000 to 100000 nM
O=C(Nc1cc(CS(=O)(=O)c2ccccc2)cc2c1[C@H](c1cc(F)ccc1Cl)NC2=O)c1cc(F)cc(C(F)(F)F)c1 [Compound I-1591] | ≤ 100 nM
